The values that follow are results of earlier work, collected in patent US20230414606A1 (Lake O'Hara LLC, priority 2022, published 2023).

One data set deals with CYP3A4 (Homo sapiens, UniProt P08684). Particulars: based on the literature, model input.
The conditions of data set [1]: previous studies, no patients with BMI>35 kg/m2.
Where [2] appears, read: based on the literature, model input.

Chain of CYP3A4 (P08684 whole entry): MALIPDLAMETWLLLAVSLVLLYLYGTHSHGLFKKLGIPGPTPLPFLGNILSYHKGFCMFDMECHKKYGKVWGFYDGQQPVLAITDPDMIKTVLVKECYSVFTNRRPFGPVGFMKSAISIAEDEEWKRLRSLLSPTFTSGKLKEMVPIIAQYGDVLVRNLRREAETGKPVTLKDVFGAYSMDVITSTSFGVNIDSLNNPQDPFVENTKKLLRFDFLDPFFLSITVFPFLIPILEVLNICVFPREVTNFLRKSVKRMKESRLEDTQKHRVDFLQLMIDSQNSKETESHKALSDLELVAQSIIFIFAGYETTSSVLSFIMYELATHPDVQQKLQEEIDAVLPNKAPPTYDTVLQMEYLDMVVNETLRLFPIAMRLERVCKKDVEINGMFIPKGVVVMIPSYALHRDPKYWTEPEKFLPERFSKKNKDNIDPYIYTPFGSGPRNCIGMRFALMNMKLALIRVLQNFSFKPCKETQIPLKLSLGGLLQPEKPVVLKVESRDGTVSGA

Take `O=c1ccc2ccc(OCCCCN3CCN(c4cccc5sccc45)CC3)cc2[nH]1` [brexpiprazole, 7-14-14-(1-Benzothiophen-4-yl)piperazin-1-yllbutoxylquinolin-2(1H)-one]: the “decrease of baseline clearance by CYP2D6 PM status” value with CYP2D6 (CYP2D6 PM) is recorded as roughly 30%. The “brexpiprazole clearance due to CYP2D6” value in the data set with CYP2D6 (setting [2]) was 43.3%. Besides, the “brexpiprazole clearance due to CYP3A4” value at CYP3A4 was 46.7%. The “brexpiprazole clearance due to other routes” value under setting [2] is given as 10%. Moreover, where the note is “model assumption, clearance entirely in the liver”, the renal clearance is recorded as roughly 1%. Besides, the “effect of weight on the pharmacokinetics of brexpiprazole” value in data set [1] is recorded as “less than 20%”.
